Data from ChEMBL document CHEMBL3045580, “New aspect of gallic esters: marked effect on termite feeding” (J Pestic Sci, 2011).
Active and inactive are the calls of the source. The calls are words filed in the database; no cut-off is given here.

Assays:
Format in all cases: functional, organism-based
Coptotermes formosanus [1] = experiment: Antifeeding activity against Coptotermes formosanus undifferentiated larvae assessed as induction of feeding deterrence using 0.5% w/w compound treated filter paper disks measured after 1 week by no-choice feeding test
Coptotermes formosanus [2] = experiment: Antifeeding activity against Coptotermes formosanus undifferentiated larvae assessed as induction of feeding deterrence compound treated filter paper disks measured after 1 week by no-choice feeding test
Coptotermes formosanus [3] = experiment: Feeding stimulant effect in Coptotermes formosanus undifferentiated larvae using 0.5% w/w compound treated filter paper disks measured after 1 week by no-choice feeding test

Compound	Activity (Coptotermes formosanus [1])	IC50 (Coptotermes formosanus [2]) [%]	Activity (Coptotermes formosanus [3])
CCCOC(=O)c1cc(O)c(O)c(O)c1	Active		
CCCCCCCCCCOC(=O)c1cc(O)c(O)c(O)c1 [DECYL GALLATE]	Active	0.05	
CCCCCCCCCCCCCCOC(=O)c1cc(O)c(O)c(O)c1	Active		
CCCCCCCCCCCCOC(=O)c1cc(O)c(O)c(O)c1	Active		
CCCCCCOC(=O)c1cc(O)c(O)c(O)c1	Active		
CCCCCCCCOC(=O)c1cc(O)c(O)c(O)c1	Active		
CCCCCCCCCCCCCCCCCCOC(=O)c1cc(O)c(O)c(O)c1			Active
